Test results published in ChEMBL document CHEMBL1126982, “Design and synthesis of a DNA-cleaving metallopeptide” (Bioorg Med Chem Lett, 1993).

Assays:
Type in all cases: nucleic-acid assay
Nucleic Acid [1] = assay: Cu(II) complex for cleavage of phi X174 RF plasmid DNA from intact form I to nicked form II at 250 uM compound and 100 uM Cu(II)
Nucleic Acid [2] = assay: Cu(II) complex for cleavage of phi X174 RF plasmid DNA from intact form I to nicked form II at 250 uM compound and 200 uM Cu(II)
Nucleic Acid [3] = assay: Cu(II) complex for cleavage of phi X174 RF plasmid DNA from intact form I to nicked form II at 350 uM of Cu(II)

Activity (Nucleic Acid [1]): 50%
Activity (Nucleic Acid [2]): 70%
Activity (Nucleic Acid [3]): > 90%
Substance: H-GGHGYSPTSPSYGK-NH2
